# Measured values reported in patent US9493833B1, “Methods for preventing induced synthesis of proteasomes in human cells” (THE REGENTS OF THE UNIVERSITY OF CALIFORNIA, priority 2009, dated 2016).
# Where a SMILES comes first, the peptide text is derived from it. The star is where a group is joined. Cbz = O=C(OCc1ccccc1)*; CH2F = FC*
# Tests used:
# [1] = test system: PSM genes (PSMA7, PSMB4, PSMB7, PSMC1, PSMC4, PSMD1, PSMD12); test: mRNA levels of representative PSM genes by quantitative RT-PCR in LNCaP and HT-29 cells treated with proteasome inhibitors or MLN4924; assay type: cell-based, human; settings: 10 hrs, normalized to GAPDH, DMSO set to 1
# Experimental: (§1) The human prostate cancer LNCaP and colon cancer HT29 cell lines were incubated with different proteasome inhibitors (MG132, YU101, and bortezomib) or the Nedd8 pathway inhibitor MLN4924 (Soucy et al., 2009, Nature, 458, 732-736). Prostate cancer LNCaP and colon cancer HT-29 cells were treated with the indicated concentrations of proteasome inhibitors (MG132, YU101, and Bortezomib) or the Nedd8 pathway inhibitor (MLN4924) for 10 hrs, and mRNA levels of representative PSM genes were analyzed by quantitative RT-PCR (FIGS. 1A-1C). The values were normalized to GAPDH and for each cell line the DMSO treated sample was set to 1. Error bars denote SD (n=3). […] MLN4924 works by inhibiting the Nedd8-activating enzyme, the result of which is the accumulation of cullin-RING ligase (CRL) substrates (Soucy et al., 2009).
# (§2) RNA was isolated using the RNeasy kit (Qiagen). cDNA was prepared using the Superscript III first strand synthesis kit (Invitrogen) according to the manufacturer's recommendations. Quantitative PCR (qPCR) was performed using the SYBR GreenER supermix (Invitrogen).
# NQO1 = NQO1 mRNA level by quantitative RT-PCR in LNCaP and HT-29 cells; assay type: cell-based, human; settings: 10 hrs, same treatment conditions
# Experimental: as §1, §2
# [2] = test system: MDA-MB-231 and U2OS cells; test: CellTiter-Glo cell viability with YU101, sh-Nrf1 and Z-VAD-FMK; assay type: cell-based, human; settings: 72 hrs
# Experimental: HT29 cells were treated with either MG132 (2 μM), YU101 (100 nM) or Bortezomib (40 nM) for 1 hr after which the drugs were washed off and the cells were allowed to recover in the absence or presence of 50 μg/ml cycloheximide (CHX) (FIG. 11A). Cells were frozen at different time points as indicated and were used for proteasome activity assays as described herein. For each time point, the results are normalized to DMSO-treated control in the case of hatched lines and to CHX-treated control in the case of solid lines. Error bars denote SD (n=3). WT and Nrf1^−/− MEFs were treated with either MG132 (50 μM) or YU101 (300 nM) for an hour after which the drugs were washed off and proteasome activity was measured for cells collected at different time points as indicated (FIG. 11A). […] The results were normalized to DMSO-treated control for each cell type. Error bars denote S.E.M. (n=2). […] The cell viability was then assessed using the CellTiter-Glo method (FIG. 12A). […]
# Cells in 96-well plates were treated with different agents as required and cell viability was assessed using the Cell-Titer Glo kit (G7572; Promega) according to the protocol recommended by the manufacturer. By employing a luminescence read-out, this kit quantifies the level of ATP which is proportional to the number of viable cells.
# cleaved caspase-3 = test: Immunoblot of cleaved caspase-3 in MDA-MB-231 and U2OS cells; assay type: cell-based, human; settings: Nrf1-depleted cells; YU101 48 hrs (MDA-MB-231) or 24 hrs (U2OS)
# Experimental: HT29 cells were treated with either MG132 (2 μM), YU101 (100 nM) or Bortezomib (40 nM) for 1 hr after which the drugs were washed off and the cells were allowed to recover in the absence or presence of 50 μg/ml cycloheximide (CHX) (FIG. 11A). Cells were frozen at different time points as indicated and were used for proteasome activity assays as described herein. For each time point, the results are normalized to DMSO-treated control in the case of hatched lines and to CHX-treated control in the case of solid lines. Error bars denote SD (n=3). WT and Nrf1^−/− MEFs were treated with either MG132 (50 μM) or YU101 (300 nM) for an hour after which the drugs were washed off and proteasome activity was measured for cells collected at different time points as indicated (FIG. 11A). […] The results were normalized to DMSO-treated control for each cell type. Error bars denote S.E.M. (n=2). MDA-MB-231 and U2OS cells were transduced with retrovirus expressing either sh-Nrf1 or vector control, and 48 hrs later were seeded in to 96-well plates. The next day, the cells were treated with indicated concentrations of YU101 and the pan-caspase inhibitor Z-VAD-FMK, and further incubated for 72 hrs. The cell viability was then assessed using the CellTiter-Glo method (FIG. 12A). The results were normalized to DMSO-treated control which was set to 100% in each case. Error bars denote S.E.M. (n=2). […]
# proteasome = biological target: T1, proteasome (Mus musculus, UniProt O09061+O55234); test: Proteasome activity recovery assay in WT and Nrf1−/− MEFs; assay type: cell-based; settings: YU101 300 nM 1 hr then wash-off, single-phase exponential curve fit
# T1 construct: endogenous in cells; host or cells: WT and Nrf1-/- mouse embryonic fibroblasts, immortalized with shRNA against p19ARF
# Experimental: Cells were frozen at different time points as indicated and were used for proteasome activity assays as described herein. For each time point, the results are normalized to DMSO-treated control in the case of hatched lines and to CHX-treated control in the case of solid lines. Error bars denote SD (n=3). […] The results were normalized to DMSO-treated control for each cell type. Error bars denote S.E.M. (n=2). […] The next day, the cells were treated with indicated concentrations of YU101 and the pan-caspase inhibitor Z-VAD-FMK, and further incubated for 72 hrs. The cell viability was then assessed using the CellTiter-Glo method (FIG. 12A). The results were normalized to DMSO-treated control which was set to 100% in each case. Error bars denote S.E.M. (n=2). […] The cell lysates were used for immunoblotting to detect the levels of Nrf1 (with the antibody raised against N-terminus) and cleaved caspase-3. β-actin protein levels were used as loading control. […] The cells were then washed with PBS thrice and allowed to recover in fresh medium. At definite time points, the cells were freeze-thawed in TE buffer (20 mM Tris pH 8, 5 mM EDTA) and subsequently used for measuring proteasome activity as described previously (Demo et al., 2007).
structure (smiles),measurement,setting,value
NS(=O)(=O)OC[C@@H]1C[C@@H](n2ccc3c(N[C@H]4CCc5ccccc54)ncnc32)C[C@@H]1O [MLN4924],mRNA levels of PSM genes,[1],failed to appreciably induce the PSM genes
same,NQO1 mRNA (Nrf2 target gene),NQO1,"activation of its downstream target genes, as observed for NQO1"
COC(=O)C[C@H](NC(=O)[C@H](C)NC(=O)[C@@H](NC(=O)OCc1ccccc1)C(C)C)C(=O)CF [Z-VAD-FMK] (Cbz-Val-Ala-Asp(OMe)-CH2F),effect of co-treatment on sensitization to YU101 killing,[2],this effect was blunted
CC(=O)NC(CCc1ccccc1)C(=O)NC(CC(C)C)C(=O)NC(Cc1ccccc1)C(=O)NC(CC(C)C)C(=O)C1(C)CO1 (stereo not shown) [YU101],mRNA levels of PSM genes,[1],robustly induce mRNA levels of several PSM genes
same,level of cleaved caspase-3,cleaved caspase-3,elicited an enhanced level of cleaved caspase-3
same,time taken to recover half of the inhibited activity,proteasome; Nrf1−/− MEFs,15.96 ± 5.49 h
same,time taken to recover half of the inhibited activity,proteasome; WT MEFs,6.92 ± 1.64 h
